Data reported in article PMC7440915, “Discovery of surrogate agonists for visceral fat Treg cells that modulate metabolic indices in vivo” (eLife, 2020).
Where no end group is shown, it is not given here.

Assays:
[1] = test system: HFD-fed B6.CD45.1^+ mice; experiment: Anti-TNFα and Fat1562 immunization in HFD-fed mice with vTreg53 Treg transfer; format: in vivo, mouse; details: n ≥ 5, anti-TNFα 10 μg/g i.p. twice a week
Source text: Figure 7. Immunization with Fat1562 following vTreg53 Treg transfer ameliorates HFD-induced insulin resistance. (A–F) Metabolic indices of mice treated as in Figure 6A (n ≥ 7). (A) Body weight. (B) Insulin tolerance test (ITT). (C) Area over curve for ITT analysis. (D) Glucose tolerance test (GTT). (E) Area under curve for GTT analysis. (F) Plasma insulin levels after 6 hr of fasting. Data shown are representative of at least two independent experiments. (G) Scheme of the anti-TNFα experiment. (H) Number of total Treg cells in VAT (n ≥ 5). (I) Number of CD11c^hi inflammatory macrophages in VAT (n ≥ 5). (J) ITT (n ≥ 5). (K) Area over curve for ITT analysis (n ≥ 5). Data are mean ± SD. Figure 7—figure supplement 1. Absolute blood glucose levels. ITT analysis of mice transferred with vTreg53 TCR-tg Tregs and immunized with adjuvant/Fat1562 or adjuvant alone. Data shown are representative of at least two independent experiments (n ≥ 5). [drawing 7]
12-week-old B6.CD45.1^+ mice were fed with HFD and injected intraperitoneally with 10 μg/g body weight anti-TNFα (XT3.11, BioXCell) or isotype control IgG (HRPN, BioXCell) twice a week for 6 weeks, transferred with 0.4 million Treg cells from pooled Spl/LNs of 6-8wk-old male CD45.2^+ Tg^+ Foxp3-GFP^KI/y mice. […] One week after the IFA/peptides injection, ITT (0.75unit/kg insulin) was performed and the composition of different immunocytes were determined.
For GTT, mice were fasted for 15 hr overnight, weighed, and tested for fasting blood-glucose concentrations. […] Blood-glucose levels were measured before and 20, 40, 60, 90, and 120 min after glucose injection. […] Blood-glucose levels were measured before and 20, 40, 60, 90, and 120 min after insulin injection, and were normalized to the blood-glucose levels before insulin injection. The area under the curve (for GTT) or area over the curve (for ITT) were calculated using GraphPad Prism 7.0.

[2] = test system: vTreg53 TCR; experiment: vTreg53 TCR tetramer staining of single peptide-A^b yeast clone; format: binding, murine; details: 500 nM final tetramer concentration
Protocol: Figure 2. Identification of surrogate peptides recognized by the vTreg53 TCR. (A) The vTreg53 TCR was used to screen and isolate the peptide-MHC yeast display. vTreg53 TCR tetramer staining (500 nM of TCR-SA) together with c-Myc staining is shown for the naïve library and four consecutive rounds of selection. […] (C) Positional frequency representation from the deep sequencing of the third round of selection with vTreg53. (D) Positional frequency matrix based on the deep sequencing of the fourth round of the peptide-MHC yeast selection. […] Data shown are representative of at least two independent experiments. Figure 2—figure supplement 1. Evolution of peptide-Ab yeast display. […] TEXT PRINTED IN THE PICTURE: (B) Fat7: Fraction: 0.596 | (B) TMYKGPHAVAAFT: Fraction: 0.369 | (B) LMFKGPHAVAAFT: Fraction: 0.029 | (B) FTYKNPRPVAATG: Fraction: 0.006 | (B) Fat15: Fraction: 0.000 | (B) TMYKNPRPVAATG: Fraction: 0.000 | (B) TMYKNPRPVAATG: Fraction: 0.000 DOUBTS OF THE COPYIST ABOUT THIS PICTURE: Panel B: the Fraction values are shares of sequencing reads from a selection, so it is uncertain whether they count as a result for a substance. […]
Yeast were passaged in SDCAA and induced with SGCAA and selected with streptavidin (SA) - coated magnetic MACS beads (Miltenyi) coated with biotinylated TCR. […] Peptide-A^b surface expression was monitored with anti-c-myc (Cell Signaling) antibody staining. […]

Row | Sequence | insulin sensitivity ([1]; ITT, 0.75unit/kg insulin) | number of CD11c^hi pro-inflammatory macrophages in VAT ([1]; VAT) | number of VAT-Treg cells ([1]; VAT) | vTreg53 TCR-SA tetramer staining [2]
1 | TMYKNPRPMAATG [Fat1562] | slightly improved insulin sensitivity | reduced the number of CD11c^hi pro-inflammatory macrophages | moderately increased the numbers of VAT-Treg cells | 
2 | LMFKGPHAVQAVG [Fat7] |  |  |  | positive
